Several values for one entry are separate records, joined by “and”; a condition that tells them apart may be missing. Identical values can stand only once. Inconclusive results and toxic doses are left out. Cut-off read from the data, not from the text of the source: active = T/C of 150% or more; inactive = T/C below 125%.
System: L1210 leukemia ip in BDF1 mice, survival T/C
Test: NCI In Vivo Anticancer Drug Screen. Data for tumor model L1210 Leukemia (intraperitoneal) in B6D2F1 (BDF1) mice
Details: endpoint: mean survival time, higher = longer survival
Outline: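 Value reflects the ratio of survival in compound-treated mice to survival in vehicle-treated controls, with both groups carrying the same transplanted tumor.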

[1] = dose: 100.0 mg/kg/injection, schedule: Q01DX001 (ip), vehicle: carboxymethylcellulose (CMC)
[2] = dose: 200.0 mg/kg/injection, schedule: Q01DX001 (ip), vehicle: carboxymethylcellulose (CMC)
[3] = dose: 400.0 mg/kg/injection, schedule: Q01DX001 (ip), vehicle: carboxymethylcellulose (CMC)
[4] = dose: 100.0 mg/kg/injection, schedule: Q01DX001 (ip), vehicle: other
[5] = dose: 200.0 mg/kg/injection, schedule: Q01DX001 (ip), vehicle: other
[6] = dose: 400.0 mg/kg/injection, schedule: Q01DX001 (ip), vehicle: other
[7] = dose: 100.0 mg/kg/injection, schedule: Q01DX001 (ip), vehicle: saline
[8] = dose: 200.0 mg/kg/injection, schedule: Q01DX001 (ip), vehicle: saline
[9] = dose: 100.0 mg/kg/injection, schedule: Q04DX003 (ip), vehicle: saline
[10] = dose: 200.0 mg/kg/injection, schedule: Q04DX003 (ip), vehicle: saline
[11] = dose: 400.0 mg/kg/injection, schedule: Q04DX003 (ip), vehicle: saline
[12] = dose: 50.0 mg/kg/injection, schedule: Q01DX009 (ip), vehicle: saline with Tween-80
[13] = dose: 100.0 mg/kg/injection, schedule: Q01DX009 (ip), vehicle: saline with Tween-80
[14] = dose: 100.0 mg/kg/injection, schedule: Q04DX003 (ip), vehicle: saline with Tween-80
[15] = dose: 200.0 mg/kg/injection, schedule: Q01DX009 (ip), vehicle: saline with Tween-80
[16] = dose: 200.0 mg/kg/injection, schedule: Q04DX003 (ip), vehicle: saline with Tween-80

Measured: T/C

O=C(NCc1ccccc1Cl)Nc1ccc(F)cc1
inactive: [1] 92 % of control | dose: 100.0 mg/kg/injection, schedule: Q01DX009 (ip), vehicle: carboxymethylcellulose (CMC) 92 % of control and 93 % of control | dose: 100.0 mg/kg/injection, schedule: Q04DX002 (ip), vehicle: carboxymethylcellulose (CMC) 95 % of control (2×) and 97 % of control | dose: 100.0 mg/kg/injection, schedule: Q04DX003 (ip), vehicle: carboxymethylcellulose (CMC) 95 % of control | [2] 96 % of control | dose: 200.0 mg/kg/injection, schedule: Q01DX009 (ip), vehicle: carboxymethylcellulose (CMC) 101 % of control | dose: 200.0 mg/kg/injection, schedule: Q04DX002 (ip), vehicle: carboxymethylcellulose (CMC) 94 % of control and 96 % of control and 88 % of control | dose: 200.0 mg/kg/injection, schedule: Q04DX003 (ip), vehicle: carboxymethylcellulose (CMC) 96 % of control | [3] 87 % of control | dose: 400.0 mg/kg/injection, schedule: Q01DX009 (ip), vehicle: carboxymethylcellulose (CMC) 92 % of control and 88 % of control | dose: 400.0 mg/kg/injection, schedule: Q04DX002 (ip), vehicle: carboxymethylcellulose (CMC) 93 % of control | dose: 400.0 mg/kg/injection, schedule: Q04DX003 (ip), vehicle: carboxymethylcellulose (CMC) 91 % of control

CN(C)CCC1(CCN(C)C)C(=O)CCc2ccccc21
inactive: [4] 97 % of control | [5] 103 % of control | [6] 103 % of control

CC(=O)c1cc(-c2ccc(Cl)c(Cl)c2)nc2c(Cl)cc(Cl)cc12
inactive: [7] 104 % of control | [8] 103 % of control | dose: 400.0 mg/kg/injection, schedule: Q01DX001 (ip), vehicle: saline 103 % of control

CCCCNc1ccc(C(=O)OCCNC2CCCCC2)cc1
inactive: dose: 75.0 mg/kg/injection, schedule: Q01DX001 (ip), vehicle: saline 100 % of control | dose: 150.0 mg/kg/injection, schedule: Q01DX001 (ip), vehicle: saline 96 % of control

[N-]=[N+]=C1N=NC=C1C(N)=O
inactive: dose: 50.0 mg/kg/injection, schedule: Q01DX001 (ip), vehicle: saline 98 % of control | [7] 107 % of control | [8] 107 % of control

CC(C)CC[n+]1cccc(C(N)=O)c1
inactive: [9] 100 % of control | [10] 110 % of control | [11] 113 % of control

NNC(=O)c1ccc(Cl)cc1Nc1ccc(F)cc1
inactive: dose: 25.0 mg/kg/injection, schedule: Q04DX003 (ip), vehicle: saline 94 % of control | dose: 50.0 mg/kg/injection, schedule: Q04DX003 (ip), vehicle: saline 100 % of control | dose: 100.0 mg/kg/injection, schedule: Q01DX001 (ip), vehicle: saline sonified 111 % of control

CCCSc1nccc2n[nH]nc12
inactive: [12] 95 % of control | dose: 50.0 mg/kg/injection, schedule: Q04DX003 (ip), vehicle: saline with Tween-80 98 % of control | dose: 100.0 mg/kg/injection, schedule: Q01DX001 (ip), vehicle: saline with Tween-80 90 % of control | [13] 93 % of control | [14] 96 % of control | dose: 200.0 mg/kg/injection, schedule: Q01DX001 (ip), vehicle: saline with Tween-80 95 % of control | [15] 95 % of control | [16] 100 % of control

COc1ccc(C(=O)c2ccc(OC)c(OC)c2C(=O)O)cc1
inactive: [9] 106 % of control | [10] 114 % of control | [11] 103 % of control

CCOC(=O)c1c(O)c(C(=O)O)cc2ccccc12
inactive: dose: 50.0 mg/kg/injection, schedule: Q01DX001 (ip), vehicle: carboxymethylcellulose (CMC) 106 % of control | [1] 108 % of control | [2] 106 % of control | [3] 106 % of control

N#C/C(=C\C=C\c1ccccc1)C(=O)O
inactive: dose: 12.5 mg/kg/injection, schedule: Q04DX003 (ip), vehicle: Klucel (hydroxypropylcellulose) (HPC) 96 % of control | dose: 25.0 mg/kg/injection, schedule: Q04DX003 (ip), vehicle: Klucel (hydroxypropylcellulose) (HPC) 107 % of control | dose: 50.0 mg/kg/injection, schedule: Q04DX003 (ip), vehicle: Klucel (hydroxypropylcellulose) (HPC) 96 % of control | dose: 100.0 mg/kg/injection, schedule: Q04DX003 (ip), vehicle: Klucel (hydroxypropylcellulose) (HPC) 94 % of control

O=[N+]([O-])c1ccc(CBr)cc1
inactive: dose: 12.5 mg/kg/injection, schedule: Q01DX009 (ip), vehicle: other 95 % of control | dose: 25.0 mg/kg/injection, schedule: Q01DX009 (ip), vehicle: other 113 % of control | dose: 50.0 mg/kg/injection, schedule: Q01DX009 (ip), vehicle: other 104 % of control

Nc1ncnc(N)c1NC(=O)Cc1cccc([N+](=O)[O-])c1
inactive: dose: 12.5 mg/kg/injection, schedule: Q01DX001 (ip), vehicle: Klucel (hydroxypropylcellulose) (HPC) 101 % of control | dose: 25.0 mg/kg/injection, schedule: Q01DX001 (ip), vehicle: Klucel (hydroxypropylcellulose) (HPC) 110 % of control | dose: 50.0 mg/kg/injection, schedule: Q01DX001 (ip), vehicle: Klucel (hydroxypropylcellulose) (HPC) 96 % of control and 103 % of control

c1ccc(CNCCNCCNCc2ccccc2)cc1
inactive: [14] 101 % of control | [16] 98 % of control | dose: 400.0 mg/kg/injection, schedule: Q04DX003 (ip), vehicle: saline with Tween-80 94 % of control

Cc1ccc(NC(=O)C2CCC(C)(C(=O)O)C2(C)C)cc1 (centres undefined)
inactive: [12] 104 % of control | [13] 101 % of control | [15] 93 % of control

CC1=NN(c2ccccc2)C(=O)C1N=Nc1ccc(S(=O)(=O)Nc2cc(C)nc(C)n2)cc1 (centres undefined)
inactive: [1] 98 % of control | [2] 98 % of control | [3] 95 % of control

Nc1cc2scnc2c(N)n1
inactive: dose: 100.0 mg/kg/injection, schedule: Q01DX001 (ip), vehicle: Klucel (hydroxypropylcellulose) (HPC) 94 % of control | dose: 200.0 mg/kg/injection, schedule: Q01DX001 (ip), vehicle: Klucel (hydroxypropylcellulose) (HPC) 91 % of control | dose: 400.0 mg/kg/injection, schedule: Q01DX001 (ip), vehicle: Klucel (hydroxypropylcellulose) (HPC) 86 % of control

Cc1ccc2[nH]c(=S)n(-c3cccc(C(F)(F)F)c3)c(=O)c2c1
inactive: dose: 100.0 mg/kg/injection, schedule: Q01DX009 (ip), vehicle: Klucel (hydroxypropylcellulose) (HPC) 96 % of control | dose: 200.0 mg/kg/injection, schedule: Q01DX009 (ip), vehicle: Klucel (hydroxypropylcellulose) (HPC) 104 % of control | dose: 400.0 mg/kg/injection, schedule: Q01DX009 (ip), vehicle: Klucel (hydroxypropylcellulose) (HPC) 100 % of control

OC1c2cc(Cl)ccc2-c2c(N=Cc3ccc4c(c3)OCO4)cc(Cl)cc21 (centres undefined)
inactive: [1] 90 % of control | [2] 90 % of control | [3] 93 % of control

COC(=O)NCc1nc2cc3c[nH][nH]c3cc2n1
inactive: dose: 75.0 mg/kg/injection, schedule: Q01DX001 (ip), vehicle: carboxymethylcellulose (CMC) 91 % of control

O=c1[nH]cnc2nc(SCc3cccc([N+](=O)[O-])c3)[nH]c12
inactive: dose: 150.0 mg/kg/injection, schedule: Q01DX001 (ip), vehicle: other 89 % of control | dose: 300.0 mg/kg/injection, schedule: Q01DX001 (ip), vehicle: other 87 % of control

Oc1ccc(N=Cc2ccccc2O)cc1.[Co]
inactive: [4] 98 % of control | [5] 94 % of control | [6] 102 % of control

COc1ccc(/C(C#N)=C2\OC(=O)c3ccccc32)cc1OC
inactive: [1] 89 % of control | [2] 94 % of control | [3] 89 % of control

CCN=C(CCl)NS(=O)(=O)c1ccc(C)cc1
inactive: dose: 25.0 mg/kg/injection, schedule: Q04DX002 (ip), vehicle: saline with Tween-80 113 % of control | dose: 50.0 mg/kg/injection, schedule: Q04DX002 (ip), vehicle: saline with Tween-80 109 % of control | dose: 100.0 mg/kg/injection, schedule: Q04DX002 (ip), vehicle: saline with Tween-80 109 % of control

COC(=O)C(NC(=O)c1ccccc1)C(C)(C)SCc1ccccc1 (centres undefined)
inactive: dose: 100.0 mg/kg/injection, schedule: Q04DX003 (ip), vehicle: other 92 % of control | dose: 200.0 mg/kg/injection, schedule: Q04DX003 (ip), vehicle: other 96 % of control | dose: 400.0 mg/kg/injection, schedule: Q04DX003 (ip), vehicle: other 92 % of control

CN(C)C12CCCCC1S(=O)(=O)C2 (centres undefined)
inactive: dose: 10.0 mg/kg/injection, schedule: Q01DX009 (ip), vehicle: saline 88 % of control | dose: 20.0 mg/kg/injection, schedule: Q01DX009 (ip), vehicle: saline 98 % of control

Source: PubChem BioAssay AID248 (DTP/NCI, 2004)
